Assay results: patent US20090163475A1, “CRYSTALLINE FORM OF BENZAZEPINIUM MALEATE DERIVATIVE” (priority 2005, published 2009)

Columns and labels:
dopamine D2 receptor = dopamine D2 receptor (Homo sapiens, UniProt P14416); assay: affinity for dopamine D2 receptors; format: binding
[1] = biological target: T1, serotonin 5-HT2C receptor (Homo sapiens, UniProt P28335); assay: antagonist affinity for serotonin 5-HT2C receptor; format: binding
T1 sequence (P28335 33-458): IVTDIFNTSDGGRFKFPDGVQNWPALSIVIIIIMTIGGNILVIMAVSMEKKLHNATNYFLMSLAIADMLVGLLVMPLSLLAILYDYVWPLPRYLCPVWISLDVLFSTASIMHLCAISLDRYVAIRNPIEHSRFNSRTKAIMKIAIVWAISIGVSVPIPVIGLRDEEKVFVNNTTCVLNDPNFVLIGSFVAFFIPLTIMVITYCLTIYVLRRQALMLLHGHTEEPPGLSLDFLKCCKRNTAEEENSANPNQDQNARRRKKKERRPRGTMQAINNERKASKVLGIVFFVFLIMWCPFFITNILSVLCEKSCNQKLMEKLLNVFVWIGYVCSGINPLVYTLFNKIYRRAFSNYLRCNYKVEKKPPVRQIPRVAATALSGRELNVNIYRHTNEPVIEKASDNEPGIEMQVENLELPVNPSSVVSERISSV

dopamine D3 receptor = dopamine D3 receptor (Homo sapiens, UniProt P35462); assay: affinity for dopamine D3 receptors; format: binding
serotonin 5-HT6 receptor = serotonin 5-HT6 receptor (Homo sapiens, UniProt P50406); assay: antagonist affinity for serotonin 5-HT6 receptor; format: binding
[2] = solid-state stability with respect to hygroscopicity / humidity; format: physicochemical

Chain of dopamine D3 receptor (P35462 whole entry, species assumed): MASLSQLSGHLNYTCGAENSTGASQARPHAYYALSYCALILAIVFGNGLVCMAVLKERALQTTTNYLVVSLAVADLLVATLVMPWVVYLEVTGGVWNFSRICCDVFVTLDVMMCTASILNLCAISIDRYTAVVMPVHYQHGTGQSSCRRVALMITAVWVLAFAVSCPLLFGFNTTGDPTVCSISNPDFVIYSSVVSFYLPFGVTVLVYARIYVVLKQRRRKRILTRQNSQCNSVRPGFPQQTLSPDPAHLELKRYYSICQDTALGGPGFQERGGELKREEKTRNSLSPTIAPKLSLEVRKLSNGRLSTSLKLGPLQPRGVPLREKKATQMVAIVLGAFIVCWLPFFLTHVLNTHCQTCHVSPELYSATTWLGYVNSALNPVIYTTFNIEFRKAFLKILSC
Chain of serotonin 5-HT6 receptor (P50406 whole entry): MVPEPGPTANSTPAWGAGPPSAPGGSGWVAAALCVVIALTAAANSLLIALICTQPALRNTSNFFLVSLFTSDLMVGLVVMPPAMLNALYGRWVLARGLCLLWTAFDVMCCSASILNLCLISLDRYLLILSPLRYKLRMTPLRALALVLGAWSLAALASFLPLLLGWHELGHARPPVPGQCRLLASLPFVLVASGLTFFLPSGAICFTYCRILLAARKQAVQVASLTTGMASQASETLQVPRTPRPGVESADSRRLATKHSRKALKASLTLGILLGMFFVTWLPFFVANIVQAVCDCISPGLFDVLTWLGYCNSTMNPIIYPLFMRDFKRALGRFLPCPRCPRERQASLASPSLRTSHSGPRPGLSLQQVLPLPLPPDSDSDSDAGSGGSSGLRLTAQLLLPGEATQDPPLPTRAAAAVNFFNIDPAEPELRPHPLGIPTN
Chain of dopamine D2 receptor (P14416 whole entry): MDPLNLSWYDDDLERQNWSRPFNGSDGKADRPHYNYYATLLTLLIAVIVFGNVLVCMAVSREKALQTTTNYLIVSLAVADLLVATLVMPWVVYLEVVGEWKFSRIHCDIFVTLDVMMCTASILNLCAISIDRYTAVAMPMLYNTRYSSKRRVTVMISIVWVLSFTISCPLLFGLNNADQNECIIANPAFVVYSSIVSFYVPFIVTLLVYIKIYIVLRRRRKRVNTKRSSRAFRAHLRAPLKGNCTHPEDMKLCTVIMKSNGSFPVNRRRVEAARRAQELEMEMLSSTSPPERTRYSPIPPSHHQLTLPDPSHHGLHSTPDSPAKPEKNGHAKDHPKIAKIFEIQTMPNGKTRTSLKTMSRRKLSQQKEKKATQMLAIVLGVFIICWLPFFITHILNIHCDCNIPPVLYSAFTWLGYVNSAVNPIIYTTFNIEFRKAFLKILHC

SMILES	affinity for dopamine D2 receptor (dopamine D2 receptor)	antagonist affinity for serotonin 5-HT2C receptor [1]	affinity for dopamine D3 receptor (dopamine D3 receptor)	affinity for dopamine D3 relative to D2 receptors (dopamine D3 receptor; D3 versus D2)	antagonist affinity for serotonin 5-HT6 receptor (serotonin 5-HT6 receptor)	stability with respect to hygroscopicity and loss of water [2]	changes when exposed to very high humidity ([2]; very high humidity)
COc1cc2c(cc1S(=O)(=O)c1ccc(OCc3ccc(Cl)cc3)cc1)CCN(C)CC2.O=C(O)/C=C\C(=O)O [Form 2 salt, 7-[4-(4-Chlorobenzyloxy)benzenesulfonyl]-8-methoxy-3-methyl-2,3,4,5-tetrahydro-1H-3-benzazepinium maleate]	exhibit affinity	antagonist affinity	exhibit affinity	greater affinity for dopamine D3 than for D2 receptors	antagonist affinity	–	–
COc1cc2c(cc1S(=O)(=O)c1ccc(OCc3ccc(Cl)cc3)cc1)CCN(C)CC2.O=C(O)/C=C\C(=O)O [Form 2 maleate anhydrate, 7-[4-(4-Chlorobenzyloxy)benzenesulfonyl]-8-methoxy-3-methyl-2,3,4,5-tetrahydro-1H-3-benzazepinium Maleate]	–	–	–	–	–	particular stability	reversible changes
